# Results from patent US7563862B2, “Neural regeneration peptides and methods for their use in treatment of brain damage” (Neuren Pharmaceuticals Limited, priority 2001, dated 2009).
# “Also recorded” adds a separate entry of the source. Like-named read-outs stand apart in the source and are kept apart here. Ends that are not written are not given here. Peptide text beside a SMILES is read from it.
# Columns and labels:
# [1] = test system: mouse neural stem cells; experiment: haptotactic migration assay, mouse neural stem cells; format: cell-based
# Procedure: (§1) NRPs were tested for migration-inducing/chemoattractive activity on mouse neural stem cells, EGF-dependent immortalized mouse neural stem cell line MEB5 and wild-type PC-12 cells in a haptotactic migration assay as described below.
# (§2) Initial NRP Coating. Control wells of Transwell plates (Coming) with 12 μm pore size were coated in 1.5 ml of the BSA/PBS vehicle. Remaining plates were coated using various concentrations of NRPs ranging between 1-100 ng/ml (prepared in PBS containing 10 ug/ml BSA). The plates were then incubated at 37° C. for 1 hr to coat. Wells were then rinsed 2× with 1 ml sterile PBS.
# (§3) Laminin ([…]) for MEB-5 cells, PDL (50 μg/ml)+Matrigel for mouse primary stem cells and fibronectin (25 ug/ml)+matrigel for PC-12 cells were used as extracellular matrix (ECM) coating for the cells. All ECM compounds were diluted in PBS. 1.5 ml of the ECM per well was incubated for 2 hrs at room temperature. The wells were then rinsed once with Iml serum-free media (e.g. NB/B27) followed by 1 ml PBS wash.
# A 5 ug/mL PDL/PLL mixture (in PBS) was used to coat inserts. Subsequently the inserts were rinsed with MilliQ water.
# Transferring to Media and Cell Seeding: Appropriate medium (MEB-5 cells: DMEM-high glucose+N2 (growth medium supplement from Invitrogen)+10 ng/biotin+2 mM L-glutamine, primary stem cells: NSA-medium from Euroclone and for PC-12 cells: NB/B27 medium) was transferred into the 12-well plates. […] Plates were fixed at 1-2 days in vitro (DIV).
# Fixation: Inserts were discarded and wells fixed in successive dilutions of PFA (0.4, 1.2, 3 and 4%) for 3-5min in each dilution. […] The wells were rinsed and stored in PBS until counting.
# A haptotactic migration assay was performed according to the description of Example 10 using rat NRP-9SD (SEQ ID NO:34) (4 nM) and mouse NRP-7SW (SEQ ID NO:24) (0.4 nM) as attractants in a Boyden chamber
# [2] = test system: cerebellar microexplants; experiment: cerebellar microexplant survival assay, 3-NP/glutamate injury; format: cell-based, rat; details: for neuroprotective activity compared to NRP-5 RG / concentration of maximal neuroprotective effect: NRP-5 RG analogues
# Procedure: Toxicological and drug administration experiments were designed such that 1/100 parts of toxin and neuroprotective drug were administered simultaneously to the freshly prepared cerebellar microexplants derived from P-4 or P8 rats. Glutamate was prepared as a 50 mM stock solution in MilliQ water while 50 mM 3-nitropropionic acid was pH-adjusted (pH 6.8-7.2) in MilliQ water. The concentrations of the oxidative stress inducing toxin, 3-nitropropionic acid (3-NP), and the excitotoxin, glutamate, in the assay were 0.5 mM each. Lyophilized peptides were reconstituted in PBS or 100 μg/ml human transferrin as a 10 μM stock solution. Subsequently, serial dilutions were made. Cerebellar microexplants were cultivated for 48-72 hours at 34° C., 5% CO2 in air and 100% humidity before they were fixed by increasing amounts of paraformaldehyde (0.4%, 1.2%, 3% and 4%—each treatment 2-3 min).
# For statistical analysis of survival, four fields (each field having an area of 0.65 mm^2) of each fixed cerebellar culture with the highest cell densities were chosen, and cells displaying neurite outgrowth were counted. Statistical significance was measured by Student's t-test.
# (§4) Laminated cerebellar cortex was extracted from P3/4, P7/8 rat pups and triturated through gauze having a 125 μm pore size to obtain uniformly sized microexplants. After centrifugation for 3 minutes at 61 g and the pellet was resuspended in StartV medium (Biochrom) and the suspension seeded on poly-D-lysine coated coverslips in 6-well plates and incubated for 3 hrs to allow adherence, before 1 ml StartV per well was added. As described previously, glutamate/3-NP and NRP were also added. The explants are cultivated at 34° C. at 5% CO2 and 100% humidity for 48-72 hrs. BrdU was administered at start of cultivation for proliferation rate measurements and cells are counted per microscopic field after 48-72 hrs.
# Cerebellar Microexplants were prepared as described in Example 9 with the addition of SDF-1 as described, in addition to glutamate/3-NP, and NRP.
# Cerebellar microexplants were prepared as described in Example 9 with the addition of SDF-1, Wortmannin and PD98059 (both Calbiochem), as described, in addition to glutamate/3-NP, and NRP.
# [3] = test system: OTCs of rat embryonic forebrain; experiment: embryonic forebrain OTC migration assay (medial ganglionic eminence to cortical anlage); format: cell-based
# Procedure: OTCs of rat embryonic forebrain were prepared as described. Briefly, pregnant rats at E17 gestation were sacrificed, the fetuses rapidly removed. Coronal slices of the forebrain were cut at 400 μm thickness and placed onto millicell PICM ORG50 membranes (Millipore) in 3 cm Petri dishes containing 1 ml of DMEMI/F12, 6.5 mg/ml glucose, 0.1 mM glutamine and 10% FCS for 34 hrs. Afterwards the medium was exchanged to 1 ml Neurobasal/B27, 6.5 mg/ml glucose, 0.1 mM glutamine, to which 10 μl PBS, NRP, or SDF-1 were added for the indicated concentrations and a small DiI (1,1′-dioctodecycyl-3,3,3′3-tetramethylindocarbocyanine) crystal of uniform size was placed in the medial ganglionic eminence (n=10-15) under a stereomicroscope. After 24 hrs cultivation the total number or migrated neurons dispersed in the ganglionic eminence and cortex were counted under an inverted fluorescent microscope.
# [4] = test system: cerebellar microexplants; experiment: cerebellar microexplant proliferation assay under injury (BrdU-positive nuclei); format: cell-based, rat
# Procedure: Using the toxins described above, cerebellar explants were exposed for 24 hours, at the beginning of culturing to dilutions of NRP and 0.1 μM BrdU. Subsequently, 80% of the medium was changed without addition of new toxins and NRPs. The cerebellar cultures were fixed as described above after 3 days in vitro. The detection of the incorporated BrdU level was performed as described previously. Under these conditions, over 99% of the cells in the cerebellar population were neurons. Therefore any increase in cell number after NRP administration was most likely due to neuronal cell proliferation.
# For statistical analysis of proliferation four fields (each field having an area of 0.65 mm^2) of each fixed cerebellar culture displaying highest density of BrdU-positive nuclei were chosen, and BrdU-positive nuclei were counted. Statistical significance was measured by Student's t-test.
# as §4
# [5] = test system: MEB-5 cells; experiment: haptotactic migration assay, MEB-5 cells; format: cell-based, mouse; details: 10 ng/ml coating, 200,000 cells
# Procedure: as §1, §2, §3
# (§5) A 5 ug/mL PDL/PLL mixture (in PBS) was used to coat inserts. Subsequently the inserts were rinsed with MilliQ water. […]
# [6] = test system: wild-type PC-12 cells; experiment: haptotactic migration assay, PC-12 cells; format: cell-based; details: 50 ng/ml coating, 200,000 cells
# Procedure: as §1, §2, §3, §5
# [7] = test system: neural stem cells; experiment: neural stem cell differentiation assay, neuronal differentiation and axonal outgrowth; format: cell-based, mouse; details: together with BrdU for 24 hrs
# Procedure: Neural stem cells were derived from E15 C3H mice forebrain and cultured as neurospheres in the presence of 20 ng/ml EGF and 10 ng/ml bFGF as described in Gritti et al. (2001). Briefly, timed pregnant mice were sacrificed and the embryos removed. Under sterile conditions the brains were removed and the forebrains dissected. The tissue was dissociated by trituration and pelleted by 75 g centrifugation for 10 minutes and the cells seeded in non-coated tissue culture flasks in NSA medium with growth factors. For passaging neurospheres were triturated and seeded as single cells.
# Upon reaching a sufficient size, neurospheres were dissociated by trituration and plated at a density of 200,000 cells per well on laminin-coated 13 mm diameter coverslips that had been placed in Nunc 24 well plates. The plating medium was a 1:1 mixture of DMEM/F12 supplemented with N2 and Neurobasal supplemented with B27 and 2 mM glutamine. To enhance survival after plating the medium contained 2 ng/ml bFGF. After 24 h the medium was replaced with a neuronal differentiation-promoting medium (1:3 mixture of DMEM/F12 supplemented with N2 and Neurobasal supplemented with B27 and 2 mM glutamine) and except for the controls the test compound or IGF-1 was added simultaneously. The medium with fresh compound was exchanged every other day. Seven days after plating the differentiating cells were incubated for 20 minutes in differentiation medium containing 100 ng/ml Syto21 to label the nuclei of viable cells. Subsequently, they were fixed with 4% paraformaldehyde and immunostained with a mouse anti-βIII tubulin antibody and a goat anti-mouse Cy3-coupled secondary antibody.
# After staining the coverslips were removed from the tissue culture plate and mounted on […], using Immunofluore fluorescent mounting medium. To analyse the percentage of neurons of total cells, with a Zeiss axiophot microscope, equipped with Axoivision software, at 20× magnification images of two random fields per well were taken in the red (tubulin stained neurons) and green (Syto21 stained nuclei) fluorescent channel. Neurons and nuclei per field were counted and the neuronal percentage of total cell number determined.
molecule,measurement,setting,value
"COc1cccc(-c2cc(=O)c3ccccc3o2)c1N [PD98509, reference compound]",effect of inhibitor on NRP-induced increase in migrating NSC,"[1]; NRP-9 SD (4 nM), 15 μM PD98509",almost completely blocked; also recorded: inhibited
same,effect of inhibitor alone under vehicle and injury conditions,[2],only modest toxicity
same,effect of inhibitor / neutralizing antibody on NRP neuroprotective activity,"[2]; with NRP-9 SD, antibody 1 μg/ml 72 hours, wortmannin 100 nM",abolished the neuroprotective activity of NRP; also recorded: completely blocked neuroprotective activity
CC(C)C[C@H](NC(=O)[C@H](CS)NC(=O)[C@@H]1CCCN1C(=O)[C@H](Cc1c[nH]cn1)NC(=O)[C@H](CC(C)C)NC(=O)[C@H](CO)NC(=O)CNC(=O)[C@@H]1CCCN1C(=O)[C@H](C)NC(=O)[C@H](CCCNC(=N)N)NC(=O)[C@H](CCCNC(=N)N)NC(=O)[C@H](C)NC(=O)[C@H](CCC(=O)O)NC(=O)[C@@H]1CCCN1C(=O)[C@H](CC(=O)O)NC(=O)[C@@H](N)CCCCN)C(=O)N[C@@H](C)C(=O)N[C@@H](C)C(=O)N[C@@H](CO)C(=O)N[C@@H](CS)C(=O)N[C@@H](CO)C(=O)N[C@@H](C)C(=O)N[C@@H](C)C(=O)NCC(N)=O [NRP-2 segment KG] (H-KDPEARRAPGSLHPCLAASCSAAG-NH2),cytotoxicity,[2],no cytotoxicity
"REGRRDAAAAAGG-NH2 [SEQ ID NO:47, NRP-5 RG analogue, PGR-domain substituted]",neuroprotective activity compared to NRP-5 RG,[2],some neuroprotective effect at certain concentrations
same,concentrations with some neuroprotective effect,[2]; units in value,"0.1 pM, 10 pM and 100 nM"
"SDF-1: chemokine stromal-derived factor, 63 amino acid long mature human SDF-1 [reference compound]",potency compared to NRP,[3],far less potent than NRP
same,number of cells attracted,[1]; 100 nM coating,"attracted a similar number of cells, as did the 0.4 nM mouse NRP-7SW"
same,neuroprotection compared to NRP,[2],narrow dose range of efficacy; also recorded: only a limited neuroprotective effect
same,neuroprotection,"[2]; 10 nM, 0.5 mM 3-NP/glutamate 48 hrs",less than 30%
"GTPGRAEAGGQ-NH2 [NRP-4 segment GQ, 11-mer of NRP-4]",up regulation in the proliferation rate compared to injured cerebellar microexplants,[4]; 10 nM,132.2%
same,concentration at which proliferation induction was observed,"[4]; 3-NP/glutamate, NRP and BrdU 24 hrs, counted after 72 hrs",10 nM
same,concentration range of maximal biological activity for survival,"[2]; NRP simultaneous with 3-NP/glutamate, 48 hrs",10-100 nM
same,survival rates after severe injury,[2]; nanomolar concentrations,50%
same,concentrations with statistically significant effects,"[2]; simultaneous, 48 hrs, units in value","10 pM, 100 pM, 10 nM and 100 nM"
"COC[C@H]1OC(=O)c2coc3c2[C@@]1(C)C1=C(C3=O)[C@@H]2CCC(=O)[C@@]2(C)C[C@H]1OC(C)=O [wortmannin, reference compound]",effect of inhibitor alone under vehicle and injury conditions,[2]; without NRP,no significant effect after vehicle and injury conditions without the NRP
"GTPGRAEAGGQVSPCLAASCSQAYG-NH2 (cysteine pairing not given here) [NRP-4 GG, 25-mer fragment of NRP-4]",more E14 cells migrated compared with BSA-vehicle,"[1]; 10 ng/ml coating, 200,000 cells",93.7%
same,more MEB-5 cells migrated compared with BSA-vehicle,[5],195%
same,more PC-12 cells migrated compared with BSA vehicle,[6],80.8%
"SEPEARRAQGGQIPSERVLSD-NH2 [NRP-9 segment SD, 21-mer of rat NRP-9]",cells attracted compared to control condition,[1]; 4 nM,Nearly four times
same,concentration range of maximal neuronal survival activity,"[2]; 0.5 mM 3-NP/glutamate, 48 hrs",0.1 to 10 pM
"AAARRDAPGRAGG-NH2 [SEQ ID NO:45, NRP-5 RG analogue]",concentration of maximal neuroprotective effect,[2],about 1 pM
same,neuroprotective activity compared to NRP-5 RG,[2],even higher neuroprotective activity than the original NRP-5 RG
"REAAADAPGRAGG-NH2 [SEQ ID NO:44, NRP-5 RG analogue]",concentration of maximal neuroprotective effect,[2],about 1 pM
same,neuroprotective activity compared to NRP-5 RG,[2],did not significantly change in the activity profile
"REGRRDAPGRAAA-NH2 [SEQ ID NO:46, NRP-5 RG analogue, C-terminal GG-domain substituted]",only concentration with statistically significant effect,[2],100 nM
same,neuroprotective activity compared to NRP-5 RG,[2],had less effect than NRP-5 RP
"NRP-9: rat ortholog of mouse NRP-7 (protein, RAT) MLKLNEPKPGVVTSEELTGSGIWSSASGPNCSQHRDGEDGGCGRFINLAGNRTQRGCFPEAFPLLQAEPAEYGGPRSGHRLLRGSRGSEPEARRAQGGQIPSERVLSD",proliferation rate during differentiation of NSC,[7],an increase in the proliferation rate
